Results taken from the Kinase Knowledgebase extract (Sharma et al. 2016).
pIC50: −log10 of the molar value.

What follows are molecules tested against CDK2 (UniProt P24941) (assay: Enzyme Assay).

Structure (SMILES)	pIC50
CC(C)c1cnn2c(Nc3ccc(S(=O)(=O)N(C)C)cc3)cc(Nc3ccncc3)nc12	5.51
CC(C)c1cnn2c(NC3CCN(S(=O)(=O)C(C)C)CC3)cc(N[C@H]3CC[C@H](N)CC3)nc12	4.93
CC(C)c1cnn2c(NCc3ccncc3)cc(-c3cccc(Br)c3)nc12	6.28
CSc1cc(Nc2cc(N[C@H]3CC[C@H](N)CC3)nc3ccnn23)ccc1S(=O)(=O)N(C)C	< 4.30
CC(C)c1cnn2c(Nc3ccc(S(C)(=O)=O)cc3)cc(OC3CCCCC3)nc12	6.02
CCNC(=O)N[C@H]1CC[C@H](Nc2cc(Nc3ccc(S(=O)(=O)N(C)C)cc3)n3ncc(C(C)C)c3n2)CC1	6.52
CCc1cnn2c(Nc3ccc(C(N)=O)cc3)cc(N[C@H]3CC[C@@H](N)CC3)nc12	6.46

The next lines start with the values.

pIC50	Structure (SMILES)
6.57	COc1cc(Nc2cc(N[C@H]3CC[C@H](N)CC3)nc3c(Br)cnn23)ccc1S(=O)(=O)N(C)C
7.82	N[C@H]1CC[C@H](Nc2cc(Nc3ccc(S(=O)(=O)c4ccccc4)cc3)n3ncc(Cl)c3n2)CC1
6.57	CC(C)c1cnn2c(Nc3ccc(S(=O)(=O)N4CCCC4)cc3)cc(Cl)nc12
7.35	N[C@H]1CC[C@H](Oc2cc(Nc3ccc(S(=O)(=O)c4ccccc4)cc3)n3ncc(Cl)c3n2)CC1
7.82	N[C@H]1CC[C@H](Oc2cc(Nc3ccc(S(=O)(=O)c4ccccc4)cc3)n3ncc(Br)c3n2)CC1
6.52	CC(C)c1cnn2c(Nc3ccc(S(=O)(=O)N(C)CCO)cc3)cc(NC3CCCC3)nc12
6.62	CC(C)c1cnn2c(Nc3ccc(S(=O)(=O)N(C)CCO)cc3)cc(OCCN(C)C)nc12
6.66	CC(C)c1cnn2c(Nc3ccc(S(C)(=O)=O)cc3)cc(Cl)nc12
